{"source": "paper PMC6199309", "about": "“A therapeutic approach to pantothenate kinase associated neurodegeneration” (Nature Communications, 2018)", "assay_in_all_cases": "KINOMEscan", "format_in_all_cases": "binding", "conditions_in_all_cases": "read-out: %Ctrl @ 10000nM", "key": {"KIT(D816H)": {"target": "T1, KIT(D816H) (Homo sapiens, UniProt P10721, D816H)", "T1 construct": "purchased DiscoverX KINOMEscan"}, "PIK3C2G": {"target": "T2, PIK3C2G (Homo sapiens, UniProt O75747)", "T2 construct": "purchased DiscoverX KINOMEscan"}, "ERBB3": {"target": "T3, ERBB3 (Homo sapiens, UniProt P21860)", "T3 construct": "purchased DiscoverX KINOMEscan"}, "PRKD2": {"target": "T4, PRKD2 (Homo sapiens, UniProt Q9BZL6)", "T4 construct": "purchased DiscoverX KINOMEscan"}, "VEGFR2": {"target": "T5, VEGFR2 (Homo sapiens, UniProt P35968)", "T5 construct": "DNA label for qPCR (T7 phage fusion or DNA tag); purchased DiscoverX scanMAX; host or cells: E. coli BL21-derived (T7 phage) or HEK-293"}, "KIT-autoinhibited": {"target": "T6, KIT-autoinhibited (Homo sapiens, UniProt P10721)", "T6 construct": "purchased DiscoverX KINOMEscan"}, "p38-delta": {"target": "T7, p38-delta (Homo sapiens, UniProt O15264)", "T7 construct": "purchased DiscoverX KINOMEscan"}, "PIK3CA(E542K)": {"target": "T8, PIK3CA(E542K) (Homo sapiens, UniProt P42336, E542K)", "T8 construct": "purchased DiscoverX KINOMEscan", "T8 sequence (P42336 whole entry E542K)": "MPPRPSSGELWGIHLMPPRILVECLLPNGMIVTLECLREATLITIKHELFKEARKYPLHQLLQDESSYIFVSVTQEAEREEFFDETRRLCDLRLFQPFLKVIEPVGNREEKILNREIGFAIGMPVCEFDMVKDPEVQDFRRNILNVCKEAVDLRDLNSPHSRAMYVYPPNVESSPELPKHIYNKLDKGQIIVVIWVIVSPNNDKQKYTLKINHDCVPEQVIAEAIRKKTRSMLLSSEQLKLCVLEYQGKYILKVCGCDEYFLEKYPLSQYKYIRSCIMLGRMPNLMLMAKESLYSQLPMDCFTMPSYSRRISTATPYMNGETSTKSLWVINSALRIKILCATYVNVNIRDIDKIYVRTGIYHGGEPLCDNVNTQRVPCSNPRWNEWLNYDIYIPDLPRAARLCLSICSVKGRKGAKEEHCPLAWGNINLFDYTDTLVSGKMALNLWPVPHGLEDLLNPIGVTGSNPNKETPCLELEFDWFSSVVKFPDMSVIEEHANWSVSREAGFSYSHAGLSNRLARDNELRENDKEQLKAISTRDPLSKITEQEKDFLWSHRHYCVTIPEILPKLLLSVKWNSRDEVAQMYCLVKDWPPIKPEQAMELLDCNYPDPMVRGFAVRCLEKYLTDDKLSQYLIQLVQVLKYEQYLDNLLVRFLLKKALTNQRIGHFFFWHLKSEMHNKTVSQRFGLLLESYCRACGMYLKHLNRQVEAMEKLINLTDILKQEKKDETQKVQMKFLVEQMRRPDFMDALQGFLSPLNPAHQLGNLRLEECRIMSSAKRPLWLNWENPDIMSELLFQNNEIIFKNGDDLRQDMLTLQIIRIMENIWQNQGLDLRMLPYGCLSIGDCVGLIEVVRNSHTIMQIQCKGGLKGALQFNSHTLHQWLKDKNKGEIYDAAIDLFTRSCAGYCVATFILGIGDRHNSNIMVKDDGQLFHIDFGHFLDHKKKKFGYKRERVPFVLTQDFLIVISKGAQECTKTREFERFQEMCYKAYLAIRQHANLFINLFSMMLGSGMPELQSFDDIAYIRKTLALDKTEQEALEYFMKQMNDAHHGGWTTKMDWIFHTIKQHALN"}, "YANK3": {"target": "T9, YANK3 (Homo sapiens, UniProt Q86UX6)", "T9 construct": "purchased DiscoverX scanMAX; host or cells: E. coli BL21-derived host (T7 phage) or HEK-293", "T9 sequence (Q86UX6 whole entry)": "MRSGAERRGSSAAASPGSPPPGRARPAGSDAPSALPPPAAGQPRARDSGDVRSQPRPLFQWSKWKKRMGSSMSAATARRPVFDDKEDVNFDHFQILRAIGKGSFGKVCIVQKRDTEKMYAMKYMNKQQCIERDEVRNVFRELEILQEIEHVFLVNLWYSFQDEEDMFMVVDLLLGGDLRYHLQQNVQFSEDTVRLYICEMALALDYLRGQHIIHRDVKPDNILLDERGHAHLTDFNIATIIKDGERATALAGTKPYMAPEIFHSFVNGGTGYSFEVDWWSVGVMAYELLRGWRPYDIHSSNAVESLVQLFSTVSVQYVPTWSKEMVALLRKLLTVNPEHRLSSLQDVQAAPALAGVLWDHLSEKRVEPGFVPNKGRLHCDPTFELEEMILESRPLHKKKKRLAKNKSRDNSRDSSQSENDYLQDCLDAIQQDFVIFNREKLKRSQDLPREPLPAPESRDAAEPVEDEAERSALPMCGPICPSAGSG"}, "MRCKA": {"target": "T10, MRCKA (Homo sapiens, UniProt Q5VT25)", "T10 construct": "purchased DiscoverX KINOMEscan"}, "BRSK1": {"target": "T11, BRSK1 (Homo sapiens, UniProt Q8TDC3)", "T11 construct": "purchased DiscoverX KINOMEscan"}, "GRK3": {"target": "T12, GRK3 (Homo sapiens, UniProt P35626)", "T12 construct": "DNA tag for qPCR (T7 phage fusion or DNA label); purchased DiscoverX KdELECT; host or cells: E. coli BL21-derived (T7 phage) or HEK-293", "T12 sequence (P35626 whole entry, the tested form may be a part)": "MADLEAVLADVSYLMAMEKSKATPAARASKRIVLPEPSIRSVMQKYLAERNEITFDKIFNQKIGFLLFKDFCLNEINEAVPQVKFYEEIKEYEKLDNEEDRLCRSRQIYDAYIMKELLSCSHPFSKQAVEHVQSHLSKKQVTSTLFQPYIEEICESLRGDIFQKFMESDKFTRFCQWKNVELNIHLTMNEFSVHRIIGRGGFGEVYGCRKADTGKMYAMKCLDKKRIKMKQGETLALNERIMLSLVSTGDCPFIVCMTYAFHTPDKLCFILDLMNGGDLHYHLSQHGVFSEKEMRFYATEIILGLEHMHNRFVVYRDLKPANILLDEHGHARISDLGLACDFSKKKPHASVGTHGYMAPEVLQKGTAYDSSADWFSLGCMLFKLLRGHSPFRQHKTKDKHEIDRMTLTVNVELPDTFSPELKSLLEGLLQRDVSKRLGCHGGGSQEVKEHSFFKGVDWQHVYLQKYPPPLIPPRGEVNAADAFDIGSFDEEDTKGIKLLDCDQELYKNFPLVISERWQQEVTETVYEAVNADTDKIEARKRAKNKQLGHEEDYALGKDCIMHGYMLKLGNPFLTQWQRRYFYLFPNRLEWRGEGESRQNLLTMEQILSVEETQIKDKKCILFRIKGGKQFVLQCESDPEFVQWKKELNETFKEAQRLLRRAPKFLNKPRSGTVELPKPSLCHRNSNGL"}, "FES": {"target": "T13, FES (Homo sapiens, UniProt P07332)", "T13 construct": "purchased DiscoverX KINOMEscan"}, "EPHB1": {"target": "T14, EPHB1 (Homo sapiens, UniProt P54762)", "T14 construct": "purchased DiscoverX KINOMEscan"}, "PFPK5(P.falciparum)": {"target": "T15, PFPK5(P.falciparum) (Plasmodium falciparum, UniProt P61075)", "T15 construct": "purchased DiscoverX KINOMEscan", "T15 sequence (P61075 whole entry)": "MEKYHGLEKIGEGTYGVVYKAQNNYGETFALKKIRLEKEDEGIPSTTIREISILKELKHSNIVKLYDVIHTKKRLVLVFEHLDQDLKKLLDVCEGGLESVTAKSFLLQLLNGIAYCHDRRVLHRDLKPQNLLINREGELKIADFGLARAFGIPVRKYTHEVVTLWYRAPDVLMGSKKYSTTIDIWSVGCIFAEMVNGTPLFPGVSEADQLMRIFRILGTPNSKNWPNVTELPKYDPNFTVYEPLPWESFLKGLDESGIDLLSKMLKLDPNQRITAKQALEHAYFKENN"}, "[1]": {"target": "T16, JAK1(JH2domain-pseudokinase) (Homo sapiens, UniProt P23458)", "T16 construct": "JAK1(JH2domain-pseudokinase); purchased DiscoverX KINOMEscan", "T16 sequence (P23458 574-855 limits assumed)": "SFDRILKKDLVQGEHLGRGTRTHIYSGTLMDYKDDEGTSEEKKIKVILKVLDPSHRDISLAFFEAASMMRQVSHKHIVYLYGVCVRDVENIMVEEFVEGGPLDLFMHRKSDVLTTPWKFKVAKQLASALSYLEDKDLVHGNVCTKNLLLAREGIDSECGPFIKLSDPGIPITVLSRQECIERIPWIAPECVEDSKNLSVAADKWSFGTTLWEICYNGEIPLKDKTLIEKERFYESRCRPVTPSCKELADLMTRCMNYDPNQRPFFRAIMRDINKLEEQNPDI"}, "NEK1": {"target": "T17, NEK1 (Homo sapiens, UniProt Q96PY6)", "T17 construct": "purchased DiscoverX KINOMEscan", "T17 sequence (Q96PY6 whole entry)": "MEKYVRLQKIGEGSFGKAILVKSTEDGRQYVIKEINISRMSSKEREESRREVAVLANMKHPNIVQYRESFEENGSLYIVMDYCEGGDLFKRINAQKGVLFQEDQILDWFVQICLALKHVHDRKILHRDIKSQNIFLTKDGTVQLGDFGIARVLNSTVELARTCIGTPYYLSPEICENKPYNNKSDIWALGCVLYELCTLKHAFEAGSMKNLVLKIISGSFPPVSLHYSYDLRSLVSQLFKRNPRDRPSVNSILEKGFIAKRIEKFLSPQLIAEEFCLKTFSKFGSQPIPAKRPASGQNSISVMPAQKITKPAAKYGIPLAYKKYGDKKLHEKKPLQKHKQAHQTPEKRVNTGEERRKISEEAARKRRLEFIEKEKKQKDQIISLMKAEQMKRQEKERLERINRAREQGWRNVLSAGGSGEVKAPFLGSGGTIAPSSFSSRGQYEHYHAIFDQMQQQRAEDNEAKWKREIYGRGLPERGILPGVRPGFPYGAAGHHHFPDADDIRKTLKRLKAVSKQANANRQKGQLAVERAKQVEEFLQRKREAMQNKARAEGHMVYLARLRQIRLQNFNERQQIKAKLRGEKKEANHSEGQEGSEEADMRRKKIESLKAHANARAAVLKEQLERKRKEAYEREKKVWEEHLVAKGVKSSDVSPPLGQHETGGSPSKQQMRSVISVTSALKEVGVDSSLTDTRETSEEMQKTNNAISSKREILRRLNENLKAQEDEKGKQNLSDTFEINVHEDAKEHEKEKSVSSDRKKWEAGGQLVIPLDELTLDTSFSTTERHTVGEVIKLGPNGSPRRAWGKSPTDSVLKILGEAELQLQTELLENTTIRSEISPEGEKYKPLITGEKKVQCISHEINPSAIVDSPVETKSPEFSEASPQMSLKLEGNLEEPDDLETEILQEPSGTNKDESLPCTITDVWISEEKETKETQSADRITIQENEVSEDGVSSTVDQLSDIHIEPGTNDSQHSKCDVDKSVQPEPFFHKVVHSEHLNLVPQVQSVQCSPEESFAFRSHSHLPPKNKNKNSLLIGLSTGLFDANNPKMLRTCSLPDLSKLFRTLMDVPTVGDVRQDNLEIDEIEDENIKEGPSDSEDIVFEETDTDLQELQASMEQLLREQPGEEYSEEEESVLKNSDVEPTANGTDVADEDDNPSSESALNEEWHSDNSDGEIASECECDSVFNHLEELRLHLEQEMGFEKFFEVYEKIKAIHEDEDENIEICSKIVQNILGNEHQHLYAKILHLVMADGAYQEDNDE"}, "PKN1": {"target": "T18, PKN1 (Homo sapiens, UniProt Q16512)", "T18 construct": "purchased DiscoverX KINOMEscan", "T18 sequence (Q16512 whole entry)": "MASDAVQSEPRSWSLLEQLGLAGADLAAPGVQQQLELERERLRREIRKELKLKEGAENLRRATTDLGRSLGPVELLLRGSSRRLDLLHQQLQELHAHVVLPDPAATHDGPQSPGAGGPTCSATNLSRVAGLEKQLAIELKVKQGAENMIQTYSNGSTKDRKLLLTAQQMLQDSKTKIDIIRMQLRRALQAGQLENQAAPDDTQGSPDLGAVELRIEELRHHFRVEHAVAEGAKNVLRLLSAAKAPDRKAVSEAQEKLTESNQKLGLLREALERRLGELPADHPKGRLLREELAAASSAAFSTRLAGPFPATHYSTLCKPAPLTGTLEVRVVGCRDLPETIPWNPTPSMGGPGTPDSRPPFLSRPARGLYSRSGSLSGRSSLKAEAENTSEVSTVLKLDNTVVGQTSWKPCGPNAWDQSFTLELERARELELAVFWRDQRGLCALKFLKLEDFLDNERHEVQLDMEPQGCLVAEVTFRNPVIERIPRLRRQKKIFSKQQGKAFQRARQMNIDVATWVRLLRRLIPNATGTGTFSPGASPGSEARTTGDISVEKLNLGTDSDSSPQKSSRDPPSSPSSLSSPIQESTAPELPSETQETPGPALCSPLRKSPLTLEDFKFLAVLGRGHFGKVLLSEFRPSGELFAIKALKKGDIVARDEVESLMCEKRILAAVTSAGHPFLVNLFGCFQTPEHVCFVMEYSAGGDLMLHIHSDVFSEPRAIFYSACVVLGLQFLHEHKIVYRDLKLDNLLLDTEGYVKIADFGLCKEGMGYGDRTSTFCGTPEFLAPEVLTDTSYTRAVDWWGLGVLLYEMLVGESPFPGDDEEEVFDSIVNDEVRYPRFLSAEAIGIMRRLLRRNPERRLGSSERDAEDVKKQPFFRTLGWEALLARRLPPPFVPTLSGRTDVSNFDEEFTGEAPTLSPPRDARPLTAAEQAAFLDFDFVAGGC"}}}
{"smiles": "CC(C)c1ccc(CC(=O)N2CCN(c3ccc(C#N)nn3)CC2)cc1", "note": "[PZ-2891, 6-(4-(2-(4-isopropylphenyl)acetyl)piperazin-1-yl)pyridazine-3-carbonitrile]", "values": [{"measurement": "remaining binding at 10 µM", "setting": "KIT(D816H)", "result": 66, "unit": "%"}, {"measurement": "remaining binding at 10 µM", "setting": "PIK3C2G", "result": 61, "unit": "%"}, {"measurement": "remaining binding at 10 µM", "setting": "ERBB3", "result": 60, "unit": "%"}, {"measurement": "remaining binding at 10 µM", "setting": "PRKD2", "result": 82, "unit": "%"}, {"measurement": "remaining binding at 10 µM", "setting": "VEGFR2", "result": 75, "unit": "%"}, {"measurement": "remaining binding at 10 µM", "setting": "KIT-autoinhibited", "result": 81, "unit": "%"}, {"measurement": "remaining binding at 10 µM", "setting": "p38-delta", "result": 76, "unit": "%"}, {"measurement": "remaining binding at 10 µM", "setting": "PIK3CA(E542K)", "result": 64, "unit": "%"}, {"measurement": "remaining binding at 10 µM", "setting": "YANK3", "result": 84, "unit": "%"}, {"measurement": "remaining binding at 10 µM", "setting": "MRCKA", "result": 92, "unit": "%"}, {"measurement": "remaining binding at 10 µM", "setting": "BRSK1", "result": 75, "unit": "%"}, {"measurement": "remaining binding at 10 µM", "setting": "GRK3", "result": 35, "unit": "%"}, {"measurement": "remaining binding at 10 µM", "setting": "FES", "result": 94, "unit": "%"}, {"measurement": "remaining binding at 10 µM", "setting": "EPHB1", "result": 90, "unit": "%"}, {"measurement": "remaining binding at 10 µM", "setting": "PFPK5(P.falciparum)", "result": 99, "unit": "%"}, {"measurement": "remaining binding at 10 µM", "setting": "[1]", "result": 47, "unit": "%"}, {"measurement": "remaining binding at 10 µM", "setting": "NEK1", "result": 100, "unit": "%"}, {"measurement": "remaining binding at 10 µM", "setting": "PKN1", "result": 69, "unit": "%"}]}
